Where two headings read alike, the source gives them in different places.

Broadly, the mortality is the percentage killed. Read a high mortality as a strong lethal effect.

For series [1], the system named is Small Brown Planthopper (Laodelphax striatellus). The experiment in a line: Control test on small brown planthopper, nursery box application of paddy rice, number of parasitic insects after 40 and 60 days. It is filed as in vivo. The procedure:
(§1) Control Test on Small Brown Planthopper (Laodelphax striatellus) and Rice Leafroller (Cnaphalocrocis medinalis) on Nursery Box Application of Paddy Rice
(§2) Rice (cultivar: Nihonbare) cultured in a nursery box was treated with 50 g of a granule formulation per box, and then transplanted to the rice field. For the control effect against Laodelphax striatellus, the number of parasitic insects was examined for 30 stumps per plot after 40 days and 60 days from the transplantation. In addition, for the control effect against Cnaphalocrocis medinalis, the number of infected leaves was examined for 100 stumps per plot after 50 days from the transplantation, and the infected leaf rate was calculated. In the Table, gai represents the amount of active ingredients (g).

For series [2], the system named is Rice Leafroller (Cnaphalocrocis medinalis). Briefly: Control test on rice leafroller, nursery box application of paddy rice, infected leaf rate after 50 days. Conditions: 50 days after transplantation. It is filed as in vivo. The procedure: as §1, §2
Series [3] has as its system Green Peach Aphid (Myzus persicae). It is filed as in vivo. The note with it: 3 ppm, foliar spray on eggplant, 5 days after spraying.
Series [4] has as its system Resistant Cotton Melon Aphid (Aphis gossypii). It is filed as in vivo. Conditions: 3 ppm, foliar spray on cucumber, 5 days after spraying.
For series [5], the system named is Small Brown Planthopper (Laodelphax striatellus). The experiment in a line: Insecticidal test on small brown planthopper, sprayed rice seedlings, mortality after 6 days. It is filed as in vivo. Conditions: 3 ppm, sprayed rice seedlings, 6 days after treatment. The procedure: Insecticidal Test on Small Brown Planthopper (Laodelphax striatellus)
A liquid chemical which was diluted and prepared to the prescribed concentration was sprayed on rice seedlings (cultivar: koshihikari), air-dried, and then 10 three-stage insects of Laodelphax striatellus were put into a glass test tube having a diameter of 3 cm and a height of 10 cm along with the seedlings. The test tube was cotton plugged. After 6 days from the treatment, the number of surviving insects was examined and the mortality was calculated (two replications of 10 insects per plot).

The subject of series [6] is 2-spotted Spider Mite (Tetranychus urticae). The experiment in a line: Insecticidal test on 2-spotted spider mite, kidney bean leaf disc with eggs, hatchability of larvae after 6 days. In kind it is in vivo. Conditions: 50 ppm; 6 days after spraying. The procedure:
Insecticidal Test on 2-spotted Spider Mite (Tetranychus urticae)
A plastic cup having a diameter of 8 cm was filled with water and covered by a lid with a hole having a diameter of 1 cm. Absorbent cotton was put on the top of the lid and dropped into water from the lid such that the absorbent cotton was always in a wet state due to a capillary phenomenon. A leaf disc having a diameter of 2 cm was prepared with primary leaves of kidney beans (cultivar: Green top) and placed on the aforementioned absorbent cotton. 4 adult female insects of Tetranychus urticae were inoculated thereon. Next day, the adult female insects were removed, and then the number of insect egg was examined. A liquid chemical which was prepared to the prescribed concentration was sprayed by using a vertical sprayer. After spraying, the resulting cup was allowed to stand in an isothermal chamber maintained at 25 degree centigrade. After 6 days from spraying, the number of hatched larvae that survived on the leaf disc was examined and the hatchability of larvae was calculated (two replications of one concentration per chemical).

Series [7] deals with Tiger Moth (Trichoplusia ni). The experiment in a line: Insecticidal test on tiger moth, cabbage leaf dip, mortality after 6 days. In kind it is in vivo. The note with it: 0.5 ppm; 6 days after treatment. The procedure:
Insecticidal Test on Tiger Moth (Trichoplusia ni)
Cut leaves of cabbages (cultivar: shiki-kaku) were immersed in a liquid chemical which was diluted and prepared to the prescribed concentration for 30 seconds, air-dried, and then put into a plastic vessel having a diameter of 9 cm. Each of 10 second-stage insects of Trichoplusia ni was inoculated and the resulting vessel was allowed to stand in an isothermal chamber maintained at 25 degree centigrade. After 6 days from the treatment, the number of surviving insects was examined and the mortality was calculated (two replications of 10 insects per plot).

Series [8] has as its system Oriental Fruit Moth (Grapholita molesta). Briefly: Control test on oriental fruit moth of pear, spray, rate of infected fruit after 40 days. The note with it: 40 days after spraying. It is filed as in vivo. The procedure: (§3) Control Test on Oriental Fruit Moth (Grapholita molesta) and Scab (Venturia nashicola) of Pear
(§4) A liquid chemical which was prepared to the prescribed concentration was sufficiently sprayed on 17-year-old pears (cultivar: Hosui) (early June). After 40 days from spraying, the number of infected fruits due to Grapholita molesta was examined for all fruit in the plot, and the rate of infected fruit was calculated. Furthermore, after 14 days from spraying, infection of Venturia nashicola was examined by the degrees for optional 200 leaves in the plot and the severity index was calculated according to the following equation. Severity index=Z(number of infected leaves by the degrees×index)×100/(number of examined leaves×5)

Series [9] concerns Scab (Venturia nashicola). The experiment in a line: Control test on scab of pear, spray, severity index after 14 days. It is filed as in vivo. The note with it: 14 days after spraying. The procedure:
as §3, §4

The test system of series [10] is Cucumber Moth (Diaphania indica). Briefly: Insecticidal test on cucumber moth, sprayed cucumber leaves, mortality. It is filed as in vivo. The procedure: (§5) Insecticidal Test on Cucumber Moth (Diaphania indica) and Control Test on Powdery Mildew (Sphaerotheca fuliginea) of Cucumbers
(§6) A liquid chemical which was prepared to the prescribed concentration was sufficiently sprayed on cucumbers (cultivar: sagami-hanpaku) cultured in a greenhouse. After 7 days from spraying, leaves were cut off and put into a plastic cup (diameter: 10 cm, height: 10 cm) along with 5 of second-stage larvae of Diaphania indica, and the mortality was examined 4 days thereafter. Furthermore, 1 day after spraying, the leaves of cucumbers which were previously arranged to be infected by pathogen were uniformly wiped with Sphaerotheca fuliginea thereon using a paintbrush for inoculation and examined after 10 days thereafter. The area occupied by lesion per leaf of cucumber was examined in accordance with the following index, and the control value was calculated from the average severity index of each plot according to the following equation (two replications).

Series [11] concerns Powdery Mildew (Sphaerotheca fuliginea). Briefly: Control test on powdery mildew of cucumbers, spray, control value from severity index. In kind it is in vivo. The procedure: as §5, §6
Severity Index • 0: No lesion • 1: Lesion area was not more than 5% • 2: Lesion area was from 6 to 25% • 3: Lesion area was from 26 to 50% • 4: Lesion area was not less than 51% Control Value=(1−average severity in the treated plot/average severity in the untreated plot)×100

Series [12] deals with Common Straight Swift Butterfly (Parnara guttata). Briefly: Control test on common straight swift butterfly of paddy rice, powder spray, number of insects after 20 days (Test Example 8). In kind it is in vivo. Conditions: 20 days after spraying.
Series [13] deals with Rice Blast (Pyricularia oryzae). It is filed as in vivo. The note with it: panicle blast, 30 days after spraying.
For series [14] the test system is unchanged. In kind it is in vivo. Conditions: in vivo.
Series [15] concerns Rice Striped Stem Borer (Chilo suppressalis). The note with it: 5 gai/box.
Series [16] relates to Turnip Moth (Agrotis segetum). The experiment in a line: Control test on turnip moth of cabbage, soil treatment, rate of infected stumps after 7 days. In kind it is in vivo. Conditions: 7 days after treatment. The procedure:
(§7) Control Test on Turnip Moth (Agrotis segetum) and Clubroot (Plasmodiophora brassicae) of Cabbage due to Soil Treatment
(§8) A powder in a prescribed amount was mixed to soil and cabbages (cultivar: shiki-kaku) cultured on a cell medium were planted out. After 7 days from the treatment, the number of infected stumps due to Agrotis segetum was examined and the rate of infected stumps was calculated. Furthermore, after 60 days from the treatment, stumps were picked out, and lesion formation of Plasmodiophora brassicase was examined according to the degrees of severity. The control value was calculated from the average severity index of each plot according to the following equation. In the Table, gai represents the amount of active ingredients (g).

Series [17] concerns Clubroot (Plasmodiophora brassicae). The experiment in a line: Control test on clubroot of cabbage, soil treatment, control value after 60 days. In kind it is in vivo. The note with it: 60 days after treatment. The procedure:
as §7, §8
Severity Index • 0: No clubroot attached • 1: Clubroot was attached at a portion of from 1 to 25% of the whole root • 2: Clubroot was attached at a portion of from 25 to 50% of the whole root • 3: Clubroot was attached at a portion of from 50 to 75% of the whole root • 4: Clubroot was attached at a portion of from 75% or more of the whole root Control Value=(1−average severity in the treated plot/average severity in the untreated plot)×100

Regarding `O=[N+]([O-])NC1=NCCN1Cc1ccc(Cl)nc1` [imidacloprid], the “Laodelphax striatellus Number of parasitic insects/30 stumps” value (“Laodelphax striatellus Number” for short) was determined as 0 insects/30 stumps in [1] (1 gai/box, 40 days) and 9 insects/30 stumps in series [1] (1 gai/box, 60 days). For the same compound, in series [2] (1 gai/box), the “Cnaphalocrocis medinalis Infected leaf rate (%)” value is recorded as 1.77%.
Regarding `CCOC(=O)CCN(SN(C)C(=O)Oc1cccc2c1OC(C)(C)C2)C(C)C` [benfuracarb], the “Laodelphax striatellus Number” value in [1] (2.5 gai/box, 40 days) came to 12 insects/30 stumps; in [1] (2.5 gai/box, 60 days), 31 insects/30 stumps. The “Cnaphalocrocis medinalis Infected leaf rate (%)” value in series [2] (2.5 gai/box) is 1.28%.
Turning to `Cc1cc(C(F)(C(F)(F)F)C(F)(F)F)cc(C)c1NC(=O)c1cccc(N(C)C(=O)c2ccc(Cl)nc2)c1F` [Compound 1247], the “Control rate (%)” value in series [3] was determined as 6%; in series [4] it was 10%. Besides, the results for the “Mortality (%)” value in [5] and in series [7] were 5% and 65%, respectively. For the same compound, the “Hatchability of larvae (%)” value in series [6] came to 74%. Also, the “Laodelphax striatellus Number” value in series [1] (5 gai/box, 40 days) is recorded as 69 insects/30 stumps; in series [1] (5 gai/box, 60 days) it was 121 insects/30 stumps. In series [2] (5 gai/box), the “Cnaphalocrocis medinalis Infected leaf rate (%)” value was 0.25%.
Turning to `CC(C)CC(C)c1sccc1NC(=O)c1cn(C)nc1C(F)(F)F` (centres unmarked) [penthiopyrad], in [8] (75 ppm), the “Grapholita molesta Infected fruit rate (%)” value was 19.8%. For the same compound, in series [9] (75 ppm), the “Venturia nashicola Severity index” value is reported as 3.7. In [10] (Diaphania indica, 3.15 ppm), the mortality at 3.15 ppm is 0%. Further, the “Sphaerotheca fuliginea Control value” in series [11] (3.15 ppm) is 95.
On to `CC(Oc1ccc(Cl)cc1Cl)C(=O)NC(C)(C#N)C(C)C` (centres unmarked) [fenoxanil], for which the “Number (insects/100 stumps)” value in [12] (40 gai/10a) was determined as 155 insects/100 stumps. Moreover, the “Pyricularia oryzae Control value” in [13] (40 gai/10a) came out at 88.
In the case of `Cc1cc(C(F)(C(F)(F)F)C(F)(F)F)cc(C)c1NC(=O)c1cccc(NC(=O)c2cccnc2Cl)c1F` [compound 639], the “Control rate (%)” value is listed as 10% in series [3] and 12% in [4]. For the same compound, the “Mortality (%)” value in [5] came to 0%; in series [7], 80%. The “Hatchability of larvae (%)” value in series [6] came to 82%. In addition, the “Laodelphax striatellus Number” value in [1] (5 gai/box, 40 days) amounted to 65 insects/30 stumps; in series [1] (5 gai/box, 60 days), 120 insects/30 stumps. Besides, the “Cnaphalocrocis medinalis Infected leaf rate (%)” value in series [2] (5 gai/box) was found to be 0.39%. Besides, the “Pyricularia oryzae Control value” in series [14] was 3. The “Chilo suppressalis Mortality (%)” value in series [15] turned out to be 90%.
As for `CCCc1cc(C(F)(C(F)(F)F)C(F)(F)F)cc(Br)c1NC(=O)c1cccc(NC(=O)c2ccccc2)c1` [Compound 178], in [8] (50 ppm), the “Grapholita molesta Infected fruit rate (%)” value was determined as 3.4%. Besides, in series [9] (50 ppm), the “Venturia nashicola Severity index” value came out at 51.5. In addition, the “Diaphania indica Mortality (%)” value in series [10] (10 ppm) was 90%. For the same compound, the “Sphaerotheca fuliginea Control value” in series [11] (10 ppm) amounted to 0. The “Agrotis segetum Infected stump rate (%)” value in series [16] (100 gai/10a) was found to be 5.6%. Further, in [17] (100 gai/10a), the “Plasmodiophora brassicae Control value” is given as 5.
On to `Cc1cc(C(F)(C(F)(F)F)C(F)(F)F)cc(C)c1NC(=O)c1cccc(N(C)C(=O)c2cccnc2)c1F` [Compound 1244], for which the “Laodelphax striatellus Number” value worked out at 72 insects/30 stumps in series [1] (5 gai/box, 40 days) and 132 insects/30 stumps in [1] (5 gai/box, 60 days). The “Cnaphalocrocis medinalis Infected leaf rate (%)” value in series [2] (5 gai/box) came to 0.25%.
With `C[C@H]1O[C@H](O[C@H]2[C@H](O)[C@@H](O)[C@@H](O)[C@H](O)[C@@H]2O)[C@@H](N)C[C@@H]1NC(=N)C(=O)O` [kasugamycin], the “Number (insects/100 stumps)” value in series [12] (12 gai/10a) amounted to 162 insects/100 stumps. For the same compound, in [13] (12 gai/10a), the “Pyricularia oryzae Control value” worked out at 91.
Take `O=C1OCc2c(Cl)c(Cl)c(Cl)c(Cl)c21` [fthalide]: in [12] (100 gai/10a), the “Number (insects/100 stumps)” value was found to be 150 insects/100 stumps. Further, the “Pyricularia oryzae Control value” in [13] (100 gai/10a) stood at 90.
Regarding `O=[N+]([O-])c1ccc(NS(=O)(=O)c2ccc(Cl)c(C(F)(F)F)c2)c(Cl)c1` [flusulfamide], the “Agrotis segetum Infected stump rate (%)” value in series [16] (60 gai/10a) stood at 36.1%. For the same compound, in series [17] (60 gai/10a), the “Plasmodiophora brassicae Control value” came to 91.
Consider `Cc1cc(C(F)(C(F)(F)F)C(F)(F)F)cc(C)c1NC(=O)c1cccc(N(C)C(=O)c2cccnc2F)c1F` [Compound 1246], for which the “Laodelphax striatellus Number” value in series [1] (5 gai/box, 40 days) amounted to 77 insects/30 stumps; in [1] (5 gai/box, 60 days), 137 insects/30 stumps. Moreover, in [2] (5 gai/box), the “Cnaphalocrocis medinalis Infected leaf rate (%)” value is given as 0.28%. The “Pyricularia oryzae Control value” in [14] is recorded as 0. Further, in series [15], the “Chilo suppressalis Mortality (%)” value came out at 95%.
